Target mRNA inhibition data for 89 sequences are collected here from the OligoGym collection.

Values joined by “and” are separate entries in the source; they are usually repeats but may differ in a detail not shown here. Equal values may be shown once. After the bases stand the sugars from the 5' end (letter, count) and the backbone: PS all phosphorothioate, else s phosphorothioate and o phosphodiester by linkage. Methylation of C is not given here. e = 2'-O-(2-methoxyethyl) (MOE); k = constrained ethyl (cEt); d = 2'-deoxy (DNA); m = 2'-O-methyl

One series deals with IRF4. Particulars: ASO.
The next series deals with HSD17B13. The following applies: ASO, HepaRG.

Turning to CCCCTCTCCAGGTGGC (sugars k4 d8 k4, PS), the target mRNA inhibition in the series with IRF4 (SK-MEL-28, 4 µM) is -1%.

AGACATTACTAGATTG (sugars k3 d10 k3, PS): in the series with IRF4 (SK-MEL-28, 4 µM), the target mRNA inhibition was found to be 66%. Still for that read-out and setting: the value for GTCCAGCTGGCTCCGC (sugars k3 d10 k3, PS) was 53%; that for CAGGAGCGCGGAGGGC (sugars k3 d10 k3, PS) was 11%; that for ATGCATAACACGGTGT (sugars k3 d10 k3, PS) was 45%.

With AGTGACCACGAGGCCC (sugars k3 d10 k3, PS), in the series with IRF4 (SK-MEL-28, 4 µM), the target mRNA inhibition turned out to be 15%. The same measure, in the same setting: the result for CGAAACACAGTCTGCT (sugars k3 d10 k3, PS) reads 53%; that for ACTTAAGCTAAACTCC (sugars k3 d10 k3, PS), 21%.

Regarding GCCTAGAGGTGCCTTC (sugars k3 d10 k3, PS), the target mRNA inhibition in the series with IRF4 (MM.1R, 1 µM) is 13%. Regarding AAGCATAAAAGGTTCC (sugars k3 d10 k3, PS), the target mRNA inhibition with IRF4 (SK-MEL-28, 4 µM) came to 28%.

Regarding ACTGAGATATCCTGCA (sugars k3 d10 k3, PS), the target mRNA inhibition in the series with IRF4 (SK-MEL-28, 4 µM) worked out at 19%. The same measure, in the same setting: the value for GAACGGAAGTTTACAC (sugars k3 d10 k3, PS) was 67%. With “AGTTCATGTAAAGTCT (sugars kkdddddddddkekek, PS)”, the target mRNA inhibition with IRF4 (MM.1R, 1 µM) was 42% and 31%.

In the case of GCCTAGCATGGATCCT (sugars k3 d10 k3, PS), the target mRNA inhibition with IRF4 (MM.1R, 1 µM) is -4%. For CTCCTTTTTTGGCTCC (sugars k3 d10 k3, PS), the target mRNA inhibition with IRF4 (SK-MEL-28, 4 µM) was determined as 19%. As to GTGGAAACGAGAACGC (sugars k3 d10 k3, PS), the target mRNA inhibition with IRF4 (SK-MEL-28, 4 µM) stood at 3%.

Regarding ACTTTGTACGGGTCTG (sugars k3 d10 k3, PS), in the series with IRF4 (SK-MEL-28, 4 µM), the target mRNA inhibition was determined as 39%.

GGACCACATCTAATCC (sugars k3 d10 k3, PS): the target mRNA inhibition in the series with IRF4 (MM.1R, 1 µM) is -12%.

Turning to CGTCGCAGGAGCGCGG (sugars k3 d10 k3, PS), the target mRNA inhibition in the series with IRF4 (MM.1R, 1 µM) was found to be 1%. Turning to “TGTTACCGATGCTTCA (sugars kddddddddddkekek, PS)”, in the series with IRF4 (MM.1R, 1 µM), the target mRNA inhibition was 26% and 18%. In the case of CCAAAGTTACATCCTA (sugars k3 d10 k3, PS), the target mRNA inhibition in the series with IRF4 (SK-MEL-28, 4 µM) amounted to 39%. Still for that read-out and setting: the value for AAGCATAGAGTCACCT (sugars k3 d10 k3, PS) was 36%. Still for that read-out and setting: the result for AGCTACAAAGAGCACT (sugars k3 d10 k3, PS) reads 33%.

Take CAGCAACTCCCTTGGG (sugars k3 d10 k3, PS): the target mRNA inhibition in the series with IRF4 (SK-MEL-28, 4 µM) stood at 23%.

As for TCAAGAGGAACTAGTC (sugars k3 d10 k3, PS), the target mRNA inhibition in the series with IRF4 (SK-MEL-28, 4 µM) is 24%. For TAATTACTGCTTGAGG (sugars k3 d10 k3, PS), the target mRNA inhibition amounted to 9% with IRF4 (MM.1R, 0.074 µM); 31% with IRF4 (MM.1R, 0.222 µM); 54% with IRF4 (MM.1R, 0.666 µM); 62% with IRF4 (MM.1R, 1 µM); 77% in the series with IRF4 (MM.1R, 2 µM). Regarding GCAAACGACAAGTGGC (sugars k3 d10 k3, PS), the target mRNA inhibition with IRF4 (MM.1R, 1 µM) is -15%. For the sequence TACAGGCACGGCTTCA (sugars k3 d10 k3, PS), the target mRNA inhibition with IRF4 (SK-MEL-28, 4 µM) is 58%. For GGCCTGAAGCTTAGTT (sugars k3 d10 k3, PS), the target mRNA inhibition in the series with IRF4 (MM.1R, 1 µM) was -5% and 6%.

Regarding “TGTGTATTACTCTTAG (sugars k2 d9 e3 k2, PS)”, the target mRNA inhibition with IRF4 (MM.1R, 1 µM) was 41% and 24%. For GTAATTTTAAGGCCCT (sugars k3 d10 k3, PS), in the series with IRF4 (SK-MEL-28, 4 µM), the target mRNA inhibition is 55%. As for AATCACCCTGGTCACC (sugars k3 d10 k3, PS), the target mRNA inhibition in the series with IRF4 (MM.1R, 1 µM) is 1%.

With CAAGTGTCTTCCACAA (sugars k3 d10 k3, PS), the target mRNA inhibition in the series with IRF4 (SK-MEL-28, 4 µM) amounted to 65%. Still for that read-out and setting: the result for ATTCTTAGAATGCATA (sugars k3 d10 k3, PS) reads 38%. As to TGCTAAAGGAGTGCAG (sugars k3 d10 k3, PS), in the series with IRF4 (MM.1R, 1 µM), the target mRNA inhibition was -17%. Take AATAAGATCCCACGAA (sugars k3 d10 k3, PS): the target mRNA inhibition with IRF4 (SK-MEL-28, 4 µM) amounted to 15%. Same read-out and setting: the result for CAGAAGGGCAACAGTT (sugars k3 d10 k3, PS) reads 38%; that for TCCTAGGTTTCAGTTG (sugars k3 d10 k3, PS), 48%.

With “GAAGTTTACACTGGAT (sugars kdddddddddkekeke, PS)”, the target mRNA inhibition with IRF4 (MM.1R, 1 µM) stood at 11%. Same read-out and setting: the value for CGCTGAATTGTCATGA (sugars k3 d10 k3, PS) was -1%. For GCACAGTCTTTTCGCA (sugars k3 d10 k3, PS), in the series with IRF4 (SK-MEL-28, 4 µM), the target mRNA inhibition turned out to be 20%.

On to CGTGTGCTTGCCAAGC (sugars k3 d10 k3, PS), for which the target mRNA inhibition with IRF4 (MM.1R, 0.0625 µM) was -3%; in the series with IRF4 (MM.1R, 0.25 µM), 31%; with IRF4 (MM.1R, 1 µM) it was 67% and 66% and 56%; with IRF4 (MM.1R, 4 µM) it was 81%. On to AGATAGGAAGCACTGG (sugars k3 d10 k3, PS), for which, in the series with IRF4 (SK-MEL-28, 4 µM), the target mRNA inhibition stood at 46%.

Consider GTATTTGTCGAGATCA (sugars k3 d10 k3, PS), for which the target mRNA inhibition with IRF4 (SK-MEL-28, 4 µM) turned out to be 59%.

Regarding ACGGACGAACGCGCAA (sugars k3 d10 k3, PS), in the series with IRF4 (MM.1R, 1 µM), the target mRNA inhibition was -7%. Take TTACATCTTACTTCCC (sugars k3 d10 k3, PS): the target mRNA inhibition in the series with IRF4 (SK-MEL-28, 4 µM) worked out at 42%. Still for that read-out and setting: the value for AGAAGCACTGGCATTG (sugars k3 d10 k3, PS) was 45%. As for AATGTGTATTACTCTT (sugars k3 d10 k3, PS), the target mRNA inhibition in the series with IRF4 (MM.1R, 1 µM) was 53% and 41%.

As to “AGTGACTTGCATCCAT (sugars kkdddddddddkekek, PS)”, the target mRNA inhibition in the series with IRF4 (MM.1R, 1 µM) amounted to 27%.

For CCCATGAACACCATGC (sugars k3 d10 k3, PS), the target mRNA inhibition in the series with IRF4 (SK-MEL-28, 4 µM) was found to be 32%. GCTAGTGCCAAACCAA (sugars k3 d10 k3, PS): the target mRNA inhibition came to 0% with HSD17B13 (0.02 µM); 8% with HSD17B13 (0.078 µM); 39% with HSD17B13 (0.313 µM); 70% with HSD17B13 (1 µM); 65% with HSD17B13 (1.25 µM); 87% with HSD17B13 (5 µM). On to GCTAGGGAAATCTTTC (sugars k3 d10 k3, PS), for which, in the series with HSD17B13 (1 µM), the target mRNA inhibition worked out at 66%. Still for that read-out and setting: the result for CTATAATACATTAGCA (sugars k3 d10 k3, PS) reads 3%; that for “TTAAUGCCACCCTACC (sugars k3 d1 m1 d8 k3, PS)”, 8%. Same read-out and setting: the result for ATTTAGAATACGCTGA (sugars k3 d10 k3, PS) reads 19%; that for TTGTTACATCACCCAC (sugars k3 d10 k3, PS), 34%; that for GAAGAAGTGCTTTTGT (sugars k3 d10 k3, PS), 50%. The same measure, in the same setting: the result for TTAATCATGGGACAGG (sugars k3 d10 k3, PS) reads 27%. Take “CAGTTTTCCTCATGAT (sugars k3 d9 k3 e1, PS)”: the target mRNA inhibition with HSD17B13 (1 µM) came out at 65%.

“CAGCATTGATTCGAAA (sugars k3 d1 m1 d8 k3, PS)”: the target mRNA inhibition with HSD17B13 (1 µM) stood at 37%. Still for that read-out and setting: the result for TTGATATACGATGGAA (sugars k3 d10 k3, PS) reads 38%; that for TAGCTAAGTATACTTT (sugars k3 d10 k3, PS), 10%. Same read-out and setting: the value for “CTCTTAGCTGTGCACT (sugars kkdddddddddkekek, PS)” was 56%; that for AGCGAATGTTAAAACT (sugars k3 d10 k3, PS) was 16%.

With “AGTTGCACCGTTTTGG (sugars k3 d9 k3 e1, PS)”, in the series with HSD17B13 (1 µM), the target mRNA inhibition amounted to 43%. Same read-out and setting: the result for GATCAAATGTATGTGC (sugars k3 d10 k3, PS) reads 25%. On to TCGGCTGGATATACTG (sugars k3 d10 k3, PS), for which the target mRNA inhibition with HSD17B13 (1 µM) was 23%. Take CTCTATAAAATCAATC (sugars k3 d10 k3, PS): the target mRNA inhibition with HSD17B13 (1 µM) was determined as 0%.

“GCAGUTATTAGAAGTC (sugars k3 d1 m1 d8 k3, PS)”: in the series with HSD17B13 (1 µM), the target mRNA inhibition was 59%. Still for that read-out and setting: the value for GAGCTAGACAATTGCA (sugars k3 d10 k3, PS) was 73%; that for TTGGTAAGTATTCCAT (sugars k3 d10 k3, PS) was 20%. Same read-out and setting: the value for ACGCCTAGTTTTCGGC (sugars k3 d10 k3, PS) was 7%. As to TATCTTATAAGACTAT (sugars k3 d10 k3, PS), the target mRNA inhibition in the series with HSD17B13 (1 µM) was determined as 43%. Still for that read-out and setting: the result for “TAGCUGTGCACTCATT (sugars k3 d1 m1 d8 k3, PS)” reads 60%; that for TACAACCTGGTTTCAT (sugars k3 d10 k3, PS), 25%. Still for that read-out and setting: the value for AGCTATAGGTAGCTAA (sugars k3 d10 k3, PS) was 0%; that for ACTACATTAACACCAA (sugars k3 d10 k3, PS) was 46%. Same read-out and setting: the value for ATACTATTCTCCAACT (sugars k3 d10 k3, PS) was 25%. With ATTCGAATTTCTTCAA (sugars k3 d10 k3, PS), the target mRNA inhibition with HSD17B13 (1 µM) is 65%. In the case of CTGCAAAGTTAATAGG (sugars k3 d10 k3, PS), the target mRNA inhibition in the series with HSD17B13 (1 µM) was determined as 57%. Regarding AGCTTAAACTCCAATG (sugars k3 d10 k3, PS), the target mRNA inhibition with HSD17B13 (1 µM) was 40%. Consider GACAGACCAAGTAGCT (sugars k3 d10 k3, PS), for which the target mRNA inhibition with HSD17B13 (1 µM) was 39%. On to GCATTGTAATCTTGAG (sugars k3 d10 k3, PS), for which the target mRNA inhibition with HSD17B13 (1 µM) came to 35%. Still for that read-out and setting: the value for GACTAAGGAGCTAGAT (sugars k3 d10 k3, PS) was 25%; that for AATCTAGCAACCTCTA (sugars k3 d10 k3, PS) was 22%; that for “CTTAAGATACCCAGGT (sugars k3 d1 m1 d8 k3, PS)” was 50%. The same measure, in the same setting: the value for ACCACGATTGTTACAT (sugars k3 d10 k3, PS) was 34%; that for AAACCTTCCCTGTGTA (sugars k3 d10 k3, PS) was 34%; that for TGAGTAAACGACTCTG (sugars k3 d10 k3, PS) was 23%.
